The subject of this assay is classical complement pathway. Briefly: In vitro haemolysis assay (inhibition of classical complement pathway). In kind it is cell-based, human. The protocol: Method The in vitro effect of test compounds was assessed by measuring their inhibitory effect of the classical complement pathway in a haemolysis assay. Briefly, test compounds and reference compounds were dissolved in DMSO and diluted in Tris/Casein Assay Buffer (10 mM Tris, 145 mM NaCl, 0.5 mM MgCl2, 0.15 mM CaCl2, and 0.1% W/V Casein, adjusted to pH 7.4) as 9-point serial dilutions in a 96 well plate. Sensitized sheep red blood cells (RBC) coated with rabbit anti-sheep erythrocyte antiserum (Complement Technology, Inc., TX, USA) were washed in Tris/Casein Assay Buffer. 50 μL from each well of diluted compound was added to a 96-well plate containing 50 μL diluted human serum (Complement Technology, Inc., TX, USA) and incubated for 15 minutes at room temperature. The serum dilution factor was optimized for every serum batch to obtain 70-90% of maximal haemolysis using the protocol. Then 50 μL sensitized sheep red blood cells were added to all wells ([…] per well). After 30 minutes of incubation at 37° C. with gentle agitation, the reaction was stopped by addition of 50 μL Tris STOP Buffer per well (10 mM EDTA, 10 mM Tris, 145 mM NaCl adjusted to pH 7.4). The RBCs were then removed by centrifugation and the resulting supernatant measured for hemolysis by absorbance at 405 nm. The response was normalized relative to a positive and negative control (vehicle) to calculate the IC50 from the concentration response curve using the 4-parameter logistic (4PL) nonlinear model for curve fitting.

The mark [1] stands for this setting: Table 3, human serum, sensitized sheep red blood cells, read-out: IC50[nM], in vitro analysis of inhibition of hemolysis.

Molecules are shown by their SMILES. Where two headings read alike, the source gives them in different places. Starred links: 1 amine or outer side, 2 acyl side, 3 side chain; linkers in the order of their positions; H or OH if unused. Positions of bridges follow the written chain, without caps; N, C: chain ends. Non-standard residues stand in square brackets, D forms with d. Residues, ends and D or L forms follow the SMILES beside them. Groups on a side chain read outwards from the residue. *: point of attachment. Trp(1-Me) = Cn1cc(C[C@H](N)C(=O)O)c2ccccc21; Abu(4-yl) = O=C([C@H](CC[*:3])N[*:1])[*:2]; C18 diacid = O=C(O)CCCCCCCCCCCCCCCCC(=O)*; C16 diacid = O=C(O)CCCCCCCCCCCCCCC(=O)*; γGlu = O=C(O)[C@H](CCC(=O)[*:2])N[*:1]; AEEA = NCCOCCOCC(=O)O; Sar = CNCC(=O)O

In general, IC50 refers to the concentration that inhibits the measured activity by half. As to `CC[C@H](C)[C@@H]1NC(=O)[C@@H](NC(=O)[C@H](Cc2ccccc2)NC(=O)[C@H](CCC(=O)O)NC(=O)[C@H](CO)NC(C)=O)CSSC[C@@H](C(=O)N(C)CC(=O)N[C@@H](CCC(=O)O)C(=O)NCC(=O)N[C@@H](CCC(=O)O)C(=O)NCCOCCOCC(=O)N[C@@H](CCCCNC(=O)CC[C@H](NC(=O)CNC(=O)CC[C@H](NC(=O)CCCCCCCCCCCCCCCCC(=O)O)C(=O)O)C(=O)O)C(N)=O)NC(=O)[C@H](CCCNC(=N)N)NC(=O)[C@H](Cc2c[nH]cn2)NC(=O)[C@H](CCC(=O)O)NC(=O)CNC(=O)[C@H](Cc2c[nH]c3ccccc23)NC(=O)[C@H](CC(=O)O)NC(=O)[C@H](CCC(N)=O)NC(=O)[C@H](Cc2cn(C)c3ccccc23)NC1=O` [Compound 138] (Ac-SEFCI[Trp(1-Me)]QDWGEHRC[Sar]EGE[AEEA]K([γGlu-Gly-γGlu-C18 diacid])-NH2; disulfide 4-14), the IC50 under setting [1] is below 100 nM. The same measure, in the same setting: then `CC[C@H](C)[C@@H]1NC(=O)[C@@H](NC(=O)[C@@H](NC(=O)[C@H](CCC(=O)O)NC(C)=O)[C@@H](C)CC)CSSC[C@@H](C(=O)N[C@H](C(=O)N[C@@H](CCC(=O)O)C(=O)NCC(=O)N[C@@H](CCC(=O)O)C(N)=O)[C@@H](C)O)NC(=O)[C@H](CCCNC(=N)N)NC(=O)[C@H](Cc2c[nH]cn2)NC(=O)[C@H](CCC(=O)O)NC(=O)CNC(=O)[C@H](Cc2c[nH]c3ccccc23)NC(=O)[C@H](CC(=O)O)NC(=O)[C@H](CCC(N)=O)NC(=O)[C@H](Cc2c[nH]c3ccccc23)NC1=O` [Compound 34] (Ac-EICIWQDWGEHRCTEGE-NH2; disulfide 3-13), with below 250 nM; and `CC[C@H](C)[C@H](NC(C)=O)C(=O)N[C@H]1CSSC[C@@H](C(=O)N[C@H](C(N)=O)[C@@H](C)O)NC(=O)[C@H](CCCNC(=N)N)NC(=O)[C@H](Cc2c[nH]cn2)NC(=O)[C@H](CCCNC(=N)N)NC(=O)CNC(=O)[C@H](Cc2c[nH]c3ccccc23)NC(=O)[C@H](CC(=O)O)NC(=O)[C@H](CCC(N)=O)NC(=O)[C@H](Cc2c[nH]c3ccccc23)NC(=O)[C@H]([C@@H](C)CC)NC1=O` [Compound 18] (Ac-ICIWQDWGRHRCT-NH2; disulfide 2-12), with below 100 nM. On the same count and under the same terms, then `CC[C@H](C)[C@H](NC(=O)[C@H](C)NC(=O)[C@H](CO)NC(=O)[C@H](CO)NC(=O)[C@H](CCC(=O)O)NC(C)=O)C(=O)N[C@H]1CSSC[C@@H](C(=O)N[C@H](C(N)=O)[C@@H](C)O)NC(=O)[C@H](CCCNC(=N)N)NC(=O)[C@H](Cc2c[nH]cn2)NC(=O)[C@H](C)NC(=O)CNC(=O)[C@H](Cc2c[nH]c3ccccc23)NC(=O)[C@H](CC(=O)O)NC(=O)[C@H](CCC(N)=O)NC(=O)[C@H](Cc2c[nH]c3ccccc23)NC(=O)[C@H]([C@@H](C)CC)NC1=O` [Compound 46] (Ac-ESSAICIWQDWGAHRCT-NH2; disulfide 6-16), with below 100 nM; and `CC[C@H](C)[C@@H]1NC(=O)[C@@H](NC(=O)CN(C)C(=O)[C@H](CCC(=O)O)NC(=O)[C@H](CO)NC(C)=O)CSSC[C@@H](C(=O)N[C@H](C(=O)N[C@@H](CCC(=O)O)C(=O)N[C@@H](C)C(N)=O)[C@@H](C)O)NC(=O)[C@H](CCCNC(=N)N)NC(=O)[C@H](Cc2c[nH]cn2)NC(=O)[C@H](CCC(=O)O)NC(=O)CN(C)C(=O)[C@H](Cc2c[nH]c3ccccc23)NC(=O)[C@H](CCC(=O)O)NC(=O)[C@H](CCC(N)=O)NC(=O)[C@H](Cc2cn(C)c3ccccc23)NC1=O` [Compound 89, Ac-SE[Sar]C(1)I[1-Me-Trp]QEW[Sar]EHRC(1)TEA-NH2] (Ac-SE[Sar]CI[Trp(1-Me)]QEW[Sar]EHRCTEA-NH2; disulfide 4-14), with below 100 nM; and `CC[C@H](C)[C@@H]1NC(=O)[C@@H](NC(=O)[C@H](Cc2ccccc2)NC(=O)[C@H](CCC(=O)O)NC(=O)[C@H](CO)NC(C)=O)CSSC[C@@H](C(=O)N[C@H](C(=O)N[C@@H](CCC(=O)O)C(=O)NCC(=O)N[C@@H](CCC(=O)O)C(=O)NCC(=O)NCC(=O)NCC(=O)N[C@@H](CCCCNC(=O)CC[C@H](NC(=O)CNC(=O)CC[C@H](NC(=O)CCCCCCCCCCCCCCC(=O)O)C(=O)O)C(=O)O)C(N)=O)[C@@H](C)O)NC(=O)[C@H](CCCNC(=N)N)NC(=O)[C@H](Cc2c[nH]cn2)NC(=O)[C@H](CCC(=O)O)NC(=O)CNC(=O)[C@H](Cc2c[nH]c3ccccc23)NC(=O)[C@H](CC(=O)O)NC(=O)[C@H](CCC(N)=O)NC(=O)[C@H](Cc2cn(C)c3ccccc23)NC1=O` [Compound 131] (Ac-SEFCI[Trp(1-Me)]QDWGEHRCTEGEGGGK([γGlu-Gly-γGlu-C16 diacid])-NH2; disulfide 4-14), with below 100 nM.

On to `CC[C@H](C)[C@@H]1NC(=O)[C@@H](NC(=O)CN(C)C(C)=O)CSSC[C@@H](C(=O)N[C@H](C(N)=O)[C@@H](C)O)NC(=O)[C@H](CCCNC(=N)N)NC(=O)[C@H](Cc2c[nH]cn2)NC(=O)[C@H](CCC(=O)O)NC(=O)CNC(=O)[C@H](Cc2c[nH]c3ccccc23)NC(=O)[C@H](CC(=O)O)NC(=O)[C@H](CCC(N)=O)NC(=O)[C@H](Cc2c[nH]c3ccccc23)NC1=O` [Compound 11] (Ac-[Sar]CIWQDWGEHRCT-NH2; disulfide 2-12), for which the IC50 under setting [1] is below 100 nM. For the compound `CC[C@H](C)[C@@H]1NC(=O)[C@@H](NC(=O)[C@H](Cc2ccccc2)NC(=O)[C@H](CCC(=O)O)NC(=O)[C@H](CO)NC(C)=O)CSSC[C@@H](C(=O)N[C@H](C(=O)N[C@@H](CCC(=O)O)C(=O)N[C@@H](CCCCN)C(=O)N[C@@H](CCC(=O)NCC(=O)NCC(=O)NCC(=O)N[C@@H](CCCCNC(=O)CC[C@H](NC(=O)CNC(=O)CC[C@H](NC(=O)CCCCCCCCCCCCCCCCC(=O)O)C(=O)O)C(=O)O)C(N)=O)C(=O)O)[C@@H](C)O)NC(=O)[C@H](CCCNC(=N)N)NC(=O)[C@H](Cc2c[nH]cn2)NC(=O)[C@H](CCC(=O)O)NC(=O)CNC(=O)[C@H](Cc2c[nH]c3ccccc23)NC(=O)[C@H](CC(=O)O)NC(=O)[C@H](CCC(N)=O)NC(=O)[C@H](Cc2cn(C)c3ccccc23)NC1=O` [Compound 133] (Ac-SEFCI[Trp(1-Me)]QDWGEHRCTEK[γGlu]GGGK([γGlu-Gly-γGlu-C18 diacid])-NH2; disulfide 4-14), under setting [1], the IC50 was below 100 nM. `CC(C)C[C@H](N)C(=O)O` [Leucine, reference compound]: the IC50 (Table 5, different residues at position 3 of Ac-IC(1)XWQDWGEHRC(1)T-NH2, read-out: IC50, CP hemolysis) was determined as 500 nM. Turning to `CC[C@H](C)[C@@H]1NC(=O)[C@@H](NC(=O)[C@H](Cc2ccccc2)NC(=O)[C@H](CCC(=O)O)NC(C)=O)CSCC[C@@H](C(=O)N(C)CC(=O)N[C@@H](CCC(=O)O)C(=O)N[C@@H](C)C(=O)NCCOCCOCC(=O)NCCOCCOCC(=O)N[C@@H](CCCCNC(=O)CC[C@H](NC(=O)CNC(=O)CC[C@H](NC(=O)CCCCCCCCCCCCCCCCC(=O)O)C(=O)O)C(=O)O)C(N)=O)NC(=O)[C@H](CCCNC(=N)N)NC(=O)[C@H](Cc2c[nH]cn2)NC(=O)[C@H](CCC(=O)O)NC(=O)CNC(=O)[C@H](Cc2c[nH]c3ccccc23)NC(=O)[C@H](CCC(=O)O)NC(=O)[C@H](CCC(N)=O)NC(=O)[C@H](Cc2cn(C)c3ccccc23)NC1=O` [Compound 158, Ac-EFA(1)I[1-Me-Trp]QEWGEHRhC(1)[Sar]EA[Peg3][Peg3]-K([17-carboxy-heptadecanoyl][γGlu]G[γGlu])-NH2] (Ac-EFCI[Trp(1-Me)]QEWGEHR[Abu(4-yl)][Sar]EA[AEEA][AEEA]K([γGlu-Gly-γGlu-C18 diacid])-NH2; thioether 3-13), the IC50 under setting [1] was below 250 nM.
